From patent publication US11439633B2, “Tetrahydroquinoline derivatives as P2X7 receptor antagonists” (RaQualia Pharma Inc., priority 2017, dated 2022)

molecular target: human P2X7 (Homo sapiens (Human), UniProt Q99572); test: Human P2X7 functional assay (Ca2+ influx, Fluo-4, FDSS, BzATP activation); type: cell-based; conditions: antagonistic activity with respect to the human P2X7 receptor; BzATP final concentration 80 microM; 7-point dose-response
Protocol: Human P2X7 Functional Assay
(§1) The functional activity of compounds was determined by measuring changes in intracellular calcium concentration using a Ca^2+-sensitive fluorescent dye, Fluo-4 (Molecular Probes). The changes in fluorescent signal were monitored by the cell imaging technology by Hamamatsu Photonics's Functional Drug Screening System (FDSS). Increases in intracellular Ca^2+ concentration were readily detected upon activation with BzATP.
(§2) HEK293 cells stably expressing human P2X7 (GenBank accession number BC011913) carrying a C-terminal FLAG tag were grown in T225 flasks, in a 5% CO2 humidified incubator to about 80% confluence. Media composition consisted of Dulbecco's Modified Eagle Medium (high glucose), 10% fetal bovine serum ([…]), 100 units/microM Penicillin, 100 microg/mL Streptomycin and 250 microg/mL Geneticine.
1. Plate-out HEK293-human P2X7 cells (40 microL medium containing 10,000 cells per well) into poly-D-lysine coated 384-well plates (Corning) at 24 h prior to assay.
2. Incubate at 37° C. in 5% CO2.
3. Incubate the plate at 37° C. in 5% CO2 for 1 h.
5. Test compounds were prepared at 100× the test concentration in DMSO by serial dilution with Biomek-FX liquid handling instrument. 33× diluted compound solutions in assay buffer were prepared in intermediate compound plate with Biomek-NX liquid handling instrument. A further 3× dilution occurred in below steps 6 and 7.
6. Add 20 microL of 33× diluted compound solutions into each well and leave the plate for 10 min under the dark at room temperature.
7. Measure activity by FDSS as follows: • Set the assay plate on the stacker of FDSS. • Start the detection of fluorescence intensity at 540 nm by 480 nm exicitation. • After 30 seconds, add 20 microL of assay buffer containing 240 microM BzATP (final concentration 80 microM).
IC50 values for compounds of the present invention were determined from 7-point dose-response studies. Curves were generated using the average of duplicate wells for each data point. Finally, the IC50 values are calculated with the best-fit dose curve determined by XLfit (ID Business Solutions Ltd.).

Chain of human P2X7 (Q99572 whole entry): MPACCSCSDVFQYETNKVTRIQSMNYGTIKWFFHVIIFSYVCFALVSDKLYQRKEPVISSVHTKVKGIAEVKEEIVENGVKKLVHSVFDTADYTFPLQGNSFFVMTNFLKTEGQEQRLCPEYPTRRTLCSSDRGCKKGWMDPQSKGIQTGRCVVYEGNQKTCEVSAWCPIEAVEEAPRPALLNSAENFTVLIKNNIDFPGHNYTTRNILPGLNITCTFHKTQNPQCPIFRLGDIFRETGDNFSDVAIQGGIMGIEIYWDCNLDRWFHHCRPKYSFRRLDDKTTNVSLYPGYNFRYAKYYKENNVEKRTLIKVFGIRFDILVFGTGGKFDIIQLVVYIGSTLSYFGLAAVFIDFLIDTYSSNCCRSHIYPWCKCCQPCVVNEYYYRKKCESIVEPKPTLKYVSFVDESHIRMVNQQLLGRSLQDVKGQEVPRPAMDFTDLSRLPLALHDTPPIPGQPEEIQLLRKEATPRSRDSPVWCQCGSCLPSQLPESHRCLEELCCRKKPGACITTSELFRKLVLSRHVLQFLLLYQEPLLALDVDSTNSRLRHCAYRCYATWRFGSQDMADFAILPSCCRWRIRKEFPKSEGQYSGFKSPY

Structure (SMILES) | IC50 [nM]
O=C(NCc1cc(Br)ccc1Cl)[C@]1(F)CC[C@H](O)c2ncccc21 [Example 181, (5S,8S)-N-(5-bromo-2-chlorobenzyl)-5-fluoro-8-hydroxy-5,6,7,8-tetra-hydroquinoline-5-carbox-amide] | < 50
O=C(NCc1ccc(F)cc1C(F)(F)F)[C@]1(F)CC[C@H](O)c2ncccc21 [Example 144, (5S,8S)-5-fluoro-N-(4-fluoro-2-(trifluoromethyl)benzyl)-8-hydroxy-5,6,7,8-tetrahydroquinoline-5-carboxamide] | < 50
Cc1cc(Cl)cc(Cl)c1CNC(=O)[C@@]1(F)CC[C@@H](O)c2ncccc21 [Example 126, (5R,8R)-N-(2,4-dichloro-6-methylbenzyl)-5-fluoro-8-hydroxy-5,6,7,8-tetrahydroquinoline-5-carboxamide] | < 50
CS(=O)(=O)C1CC[C@@](F)(C(=O)NCc2ccc(Cl)cc2Cl)c2cccnc21 (stereo partly drawn) [Example 350, (5S)-N-(2,4-dichlorobenzyl)-5-fluoro-8-(methylsulfonyl)-5,6,7,8-tetrahydroquinoline-5-carboxamide] | < 50
C[C@]1(O)CC[C@@](F)(C(=O)NCc2c(F)cc(F)cc2Cl)c2cccnc21 [Example 266, (5S,8S)-N-(2-chloro-4,6-difluorobenzyl)-5-fluoro-8-hydroxy-8-methyl-5,6,7,8-tetrahydroquinoline-5-carboxamide] | < 50
O=C(NCc1ccc(F)c(F)c1Cl)[C@]1(F)CC[C@H](O)c2ncccc21 [Example 174, (5S,8S)-N-(2-chloro-3,4-difluorobenzyl)-5-fluoro-8-hydroxy-5,6,7,8-tetra-hydroquinoline-5-carboxamide] | < 50
O=C(NCc1c(F)cc(Cl)cc1Cl)[C@]1(F)CC[C@H](O)c2ncccc21 [Example 152, (5S,8S)-N-(2,4-dichloro-6-fluorobenzyl)-5-fluoro-8-hydroxy-5,6,7,8-tetrahydroquinoline-5-carboxamide] | < 50
CO[C@H]1CC[C@@](F)(C(=O)NCc2c(F)cc(Cl)cc2Cl)c2cccnc21 [Example 335, (5S,8S)-N-(2,4-dichloro-6-fluorobenzyl)-5-fluoro-8-methoxy-5,6,7,8-tetrahydroquinoline-5-carboxamide] | < 50
C[C@]1(O)CC[C@@](F)(C(=O)NCc2ccc(Cl)c(F)c2F)c2cccnc21 [Example 267, (5S,8S)-N-(4-chloro-2,3-difluorobenzyl)-5-fluoro-8-hydroxy-8-methyl-5,6,7,8-tetrahydroquinoline-5-carboxamide] | < 50
O=C(NCCc1ccc(Cl)cc1Cl)[C@]1(F)CC[C@H](O)c2ncccc21 [Example 191, (5S,8S)-N-(2,4-dichloro-phenethyl)-5-fluoro-8-hydroxy-5,6,7,8-tetrahydro-quinoline-5-carboxamide] | < 50
Cc1cccc(Cl)c1CNC(=O)[C@]1(F)CC[C@H](O)c2ncccc21 [Example 161, (5S,8S)-N-(2-chloro-6-methylbenzyl)-5-fluoro-8-hydroxy-5,6,7,8-tetra-hydroquinoline-5-carbox-amide] | < 50
O=C(NCc1c(Cl)cc(Cl)cc1CO)C1CCC(O)c2ncccc21 (stereo not drawn) [Example 9, N-(2,4-dichloro-6-(hydroxymethyl)benzyl)-8-hydroxy-5,6,7,8-tetrahydroquinoline-5-carboxamide] | < 50
O=C(NCc1c(F)cccc1C(F)(F)F)[C@]1(F)CC[C@H](O)c2ncccc21 [Example 186, (5S,8S)-5-fluoro-N-(2-fluoro-6-(trifluoromethyl)benzyl)-8-hydroxy-5,6,7,8-tetrahydroquinoline-5-carboxamide] | < 50
O=C(NCc1cccc(C(F)(F)F)c1F)[C@]1(F)CC[C@H](O)c2ncccc21 [Example 175, (5S,8S)-5-fluoro-N-(2-fluoro-3-(trifluoromethyl)benzyl)-8-hydroxy-5,6,7,8-tetrahydroquinoline-5-carboxamide] | < 50
C[C@]1(O)CC[C@@](F)(C(=O)NC2CC2c2ccc(Cl)cc2Cl)c2cccnc21 (stereo partly drawn) [Example 273, (5S,8S)-N-((trans)-2-(2,4-dichlorophenyl)cyclopropyl)-5-fluoro-8-hydroxy-8-methyl-5,6,7,8-tetrahydro-quinoline-5-carboxamide] | < 50
Cc1cc(Cl)cc(Cl)c1CNC(=O)[C@]1(F)CC[C@H](O)c2ncccc21 [Example 127, (5S,8S)-N-(2,4-dichloro-6-methylbenzyl)-5-fluoro-8-hydroxy-5,6,7,8-tetrahydroquinoline-5-carboxamide] | < 50
C[C@]1(O)CC[C@@](F)(C(=O)NCc2c(F)cc(Cl)cc2Cl)c2cccnc21 [Example 265, (5S,8S)-N-(2,4-dichloro-6-fluorobenzyl)-5-fluoro-8-hydroxy-8-methyl-5,6,7,8-tetrahydroquinoline-5-carboxamide] | < 50

molecular target: rat P2X7 (Rattus norvegicus (Rat), UniProt Q64663); test: Rat P2X7 functional assay (Ca2+ influx, Fluo-4, FDSS, BzATP activation); type: cell-based; conditions: HEK293 cells stably expressing rat P2X7; BzATP final 10 microM; read-out: Antagonistic activities with respect to the rat P2X7 receptor (IC50)
Sequence (Q64663 whole entry): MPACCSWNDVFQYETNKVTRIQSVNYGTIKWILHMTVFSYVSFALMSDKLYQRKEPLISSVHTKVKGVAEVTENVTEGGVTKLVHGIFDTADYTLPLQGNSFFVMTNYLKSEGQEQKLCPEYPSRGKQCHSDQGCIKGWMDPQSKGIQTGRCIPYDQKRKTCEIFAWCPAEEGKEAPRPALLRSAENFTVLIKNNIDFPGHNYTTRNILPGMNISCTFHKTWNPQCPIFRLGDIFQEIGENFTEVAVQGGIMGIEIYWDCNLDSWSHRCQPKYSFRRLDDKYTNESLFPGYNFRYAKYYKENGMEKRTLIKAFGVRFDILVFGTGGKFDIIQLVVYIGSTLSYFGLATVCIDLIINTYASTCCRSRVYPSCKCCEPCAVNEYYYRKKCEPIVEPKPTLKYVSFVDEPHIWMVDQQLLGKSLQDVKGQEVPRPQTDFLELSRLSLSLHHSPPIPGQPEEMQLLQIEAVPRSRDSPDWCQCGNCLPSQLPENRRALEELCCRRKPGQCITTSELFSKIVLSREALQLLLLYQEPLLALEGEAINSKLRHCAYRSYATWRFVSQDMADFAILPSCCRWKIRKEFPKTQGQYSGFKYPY
Protocol: Rat P2X7 Functional Assay
as §1
as §2, with “rat” for “human”, “NM_019256)” for “BC011913) carrying a C-terminal FLAG tag”, “Corning CellBIND cell culture” for “T225”, “units/[…]” for “units/microM”
1. […]
7. Measure activity by FDSS as follows: • Set the assay plate on the stacker of FDSS. • Start the detection of fluorescence intensity at 540 nm by 480 nm exicitation. • After 30 seconds, add 20 microL of assay buffer containing 30 microM BzATP (final 10 microM).
IC50 values for compounds of the present invention were determined from 7-point dose-response studies. […] Finally, the IC50 values are calculated with the best-fit dose curve determined by XLfit (ID Business Solutions Ltd.).

Structure (SMILES) | IC50 [nM]
Cc1cc(Cl)cc(Cl)c1CNC(=O)[C@@H]1CC[C@H](O)c2ncccc21 [Example 64, (5R,8S)-N-(2,4-dichloro-6-methylbenzyl)-8-hydroxy-5,6,7,8-tetrahydroquinoline-5-carboxamide] | < 1000
